Converted amounts (≈) assume the structure as drawn.
Experiments:
[1] = Adsorption of TLR agonist to aluminium hydroxide adjuvant; assay type: physicochemical
physchem = conditions: water

Cc1ccc2c(c1)nc(N)c1ncc(CCc3ccc(OCCOCCOCCC(F)(F)P(=O)(O)O)cc3C)cc12 [compound T]
adsorption to aluminium hydroxide [1]: adsorbs well | solubility (physchem): ~4000 µg/mL (≈ 6.78 mM)
